From patent publication US20050222178A1, “Process” (priority 2002, published 2005)

Experiment: relative stability of the polymorphic forms of Compound A
Assay type: physicochemical

stability relative to the other polymorph (at elevated temperatures, for example temperatures in excess of 70° C.) | stability relative to the other polymorph (at ambient temperatures, for example 15-20° C.) | SMILES
enhanced stability over Polymorph I | – | CC(C)(C)c1nnc([C@H]2O[C@@H](n3cnc4c(Nc5ccc(Cl)cc5F)ncnc43)[C@H](O)[C@@H]2O)o1 [Polymorph II, (2S,3S,4R,5R)-2-(5-tert-butyl-[1,3,4]-oxadiazol-2-yl)-5-[6-(4-chloro-2-fluorophenylamino)-9H-purin-9-yl]-tetrahydrofuran-3,4-diol]
– | enhanced stability over Polymorph II | CC(C)(C)c1nnc([C@H]2O[C@@H](n3cnc4c(Nc5ccc(Cl)cc5F)ncnc43)[C@H](O)[C@@H]2O)o1 [Polymorph I, (2S,3S,4R,5R)-2-(5-tert-butyl-[1,3,4]-oxadiazol-2-yl)-5-[6-(4-chloro-2-fluorophenylamino)-9H-purin-9-yl]-tetrahydrofuran-3,4-diol]
